Reference: patent publication US10537611B2, “Methods of treating lung cancer” (Five Prime Therapeutics, Inc., priority 2011, dated 2020)

Tests used:
[1] = tested on: VEGF-A induced angiogenesis; experiment: Matrigel plug assay, VEGF-A induced angiogenesis; format: in vivo, mouse; conditions: C57BL/6 mice; 15 or 45 mg/kg
Protocol: (§1) Recombinant human FGF-2 (final concentration 250 ng/ml; Peprotech) and/or recombinant human VEGF-A (final concentration 100 ng/ml; Peprotech) were added to matrigel (BD Biosciences, Franklin Lakes, N.J.) with sodium heparin (2 units/ml; Sigma). FGF-2 and/or VEGF-A containing matrigel plugs (one per animal) were implanted subcutaneously in the abdomen region of C57BL/6 mice (Charles River, Wilmington, Mass.). FGFR1-ECD.339-Fc was administered by tail vein injection on days 1, 4, and 7 post-matrigel implantation. On day 9, plugs were excised and processed for hematoxylin and eosin (H&E) staining. Digital images of the stained matrigel sections were generated using a Retiga 2000R digital camera (QImaging, Burnaby, BC). Image analysis was performed using Image-Pro Plus 5.1 (Media Cybernetics Inc., Silver Spring, Md.). Neovascularization was defined as the cellular response in the Matrigel plugs, consisting of newly formed blood vessels and migrated cells.

[2] = tested on: FGF-2 induced angiogenesis; experiment: Matrigel plug assay, FGF-2 induced angiogenesis; format: in vivo, mouse; conditions: C57BL/6 mice; 5 mg/kg or higher, tail vein days 1, 4, 7
Protocol: as §1

U-251 xenograft model = experiment: U-251 xenograft tumor growth inhibition; format: in vivo, mouse; conditions: Glioblastoma U-251; IP 15 mg/kg BIW; non-amplified; P = 0.0078
Protocol: (§2) Percentage tumor growth inhibition by FGFR1-ECD.339-Fc was determined by area-under-the-curve (AUC) analysis of xenograft growth curves treated with FGFR1-ECD.339-Fc compared to albumin control. […] The difference in FGFR1-ECD.339-Fc-mediated xenograft inhibition between FGFR1 gene amplified and non-amplified lung cancer xenograft models was statistically significant (P=0.0333).
Also shown in Table 5 are the dosing schedule for FGFR1-ECD.339-Fc in a mouse xenograft model, the percent tumor growth inhibition (TGI (%)) and the statistical significance of the tumor growth inhibition (P Value), as well as whether the FGFR1 gene is amplified in the cell line.
An exemplary xenograft experiment is as follows. For Caki-1 and MSTO-211H, five million cells were implanted subcutaneously over the right flank of SCID mice (N=10 per group). […] Representative tumor growth curves are shown for a renal cancer, Caki-1, (A), and mesothelioma, MSTO-211H, (B) xenograft cancer model. […] In the MSTO-211H mesothelioma model, FGFR1-ECD.339-Fc administration reduced tumor growth (FIG. 16b) by 64% (P<0.0001).

[3] = tested on: lung cancer cell lines without FGFR1 gene amplification; experiment: Tritiated thymidine incorporation, non-amplified lung cancer cell lines (average); format: cell-based, human; conditions: across all FBS concentrations, vs control ECD-Fc
Protocol: To determine the impact of FGFR1-ECD.339-Fc on lung cancer cell lines in tissue culture, cells were plated in a Microtest™ 96-well tissue culture plate (Becton Dickenson, Franklin Lakes, N.J.) at a density of 5×10^3 cells/well in medium containing 10%, 1% or 0.1% FBS in the presence or absence of 15 μg/ml FGFR1-ECD.339-Fc (SEQ ID NO: 6) or an unrelated ECD-Fc fusion protein (as a negative control). Plates were incubated at 37° C. at 5% CO2 for 4 days and then assayed to determine the impact of FGFR1-ECD.339-Fc on cell number and proliferation.
To determine the impact of FGFR1-ECD.339-Fc on cell proliferation the tritiated thymidine ([3H]-TdR) incorporation assay was employed. […] After 16-h exposure, tritiated thymidine incorporation was assessed. […] Thymidine incorporation was determined as counts per minute (cpm) on a Topcount NXT (PerkinElmer) scintillation counter. Results were expressed as cpm/well.
The impact of FGFR1-ECD.339-Fc on cell proliferation as assessed by tritiated thymidine incorporation was also compared between FGFR1 gene amplified and non-amplified lung cancer cell lines (FIG. 4). An average percent reduction in cell proliferation with FGFR1-ECD.339-Fc addition was determined across all FBS concentrations examined for each FGFR1 gene amplified cell line and the panel of non-FGFR1 gene amplified cell lines indicated above. […]

A549 xenograft model = experiment: A549 xenograft tumor growth inhibition; format: in vivo, mouse; conditions: Lung A549; IP 10 mg/kg BIW; non-amplified; P < 0.05
From the text: The impact of FGFR1-ECD.339-Fc on tumor growth was compared between FGFR1 gene amplified and non-amplified lung cancer xenograft models. Lung cell lines without FGFR1-amplification examined in this experiment were as follows: A549, NCI-H460, NCI-H226, NCI-H2126, NCI-H441, NCI-H358, NCI-H522 and Colo699. Non-amplified cell lines were purchased from ATTC (Manassas, Va.) and cultured according to supplier instructions. Lung cancer xenograft models using non-FGFR1 gene amplified cell lines were carried out substantially as described in Example 2.
as §2

FGFR1-ECD.339-Fc: human FGFR1 extracellular domain ending at amino acid 339 fused to an Fc; SEQ ID NO: 6 (mature form), SEQ ID NO: 5 with signal peptide
in vivo angiogenesis, matrigel plug with VEGF-A only [1]: completely blocked
in vivo angiogenesis induced by matrigel plug with FGF-2 [2]: completely blocked
TGI (%) (U-251 xenograft model): 48%
average decrease in CPM (tritiated thymidine incorporation) [3]: 17.0%
TGI (%) (A549 xenograft model): 38%
